Data reported in article PMC6008492, “Structure activity relationship studies on rhodanines and derived enethiol inhibitors of metallo-β-lactamases” (Bioorganic & Medicinal Chemistry, 2018).

Assays:
SPM-1 = SPM-1 (Pseudomonas aeruginosa, UniProt Q8G9Q0); assay: SPM-1 inhibition, fluorogenic cephalosporin (FC5) hydrolysis; type: biochemical; settings: enethiols 6 assayed as sodium salts; 10 min incubation; read-out: IC50 SPM-1 (converted)
Experimental: (§1) Inhibition analyses against bacterial MBLs and SBLs were performed as described previously.[22], [24], [26] Residual enzyme activities were determined for a range of inhibitor concentrations. Non-linear regression fitting of IC50 curves was carried out using a three-parameter dose–response curve in GraphPad Prism. Errors in IC50 values are expressed as: σ(logIC50)/logIC50×IC50
(§2) We first screened the inhibitors against a representative set of presently clinically important and other MBLs[22], comprising both Class B1 enzymes (NDM-1, New Delhi MBL-1; VIM-2, Verona integron–encoded MBL-2; BcII, Bacillus cereus II MBL; SPM-1, São Paulo MBL-1; IMP-1, imipenemase MBL-1) and the Class B2 MBL CphA (carbapenem hydrolysing MBL from Aeromonas hydrophila).[22] The latter MBL (CphA) only utilises one active site Zn(II) ion in catalysis, whilst the others normally use two Zn(II) ions.
Figure S5: IC50 curves for SPM-1 inhibition time courses. Residual activities were calculated from the
(§3) initial rate of FC5 hydrolysis after incubation of the enzyme with the inhibitor for 10 minutes. […]

IMP-1 = molecular target: T1, IMP-1 (Serratia marcescens, UniProt P52699); assay: IMP-1 inhibition, fluorogenic cephalosporin (FC5) hydrolysis; type: biochemical; settings: enethiols 6 assayed as sodium salts; 10 min incubation; read-out: IC50 IMP-1 (converted)
T1 construct: made in house
Experimental: as §1, §2
Figure S3: IC50 curves for IMP-1 inhibition time courses. Residual activities were calculated from the
initial rate of FC5 hydrolysis after incubation of the enzyme with the inhibitor for 10 minutes.

BcII = molecular target: T2, BcII (Bacillus cereus, UniProt P04190); assay: biochemical; settings: enethiols 6 assayed as sodium salts; 10 min incubation; read-out: IC50 BcII (converted)
T2 construct: made in house
Experimental: as §1, §2
Figure S2: IC50 curves for BcII inhibition time courses. Residual activities were calculated from the initial
rate of FC5 hydrolysis after incubation of the enzyme with the inhibitor for 10 minutes. […]

VIM-2 = molecular target: T3, VIM-2 (Escherichia coli, UniProt Q5U7L7); assay: biochemical; settings: enethiols 6 assayed as sodium salts; 10 min incubation; read-out: IC50 VIM-2 (converted)
T3 construct: made in house
Experimental: as §1
as §2, with “ions. We also screened the inhibitors against a representative panel of SBLs from different classes (TEM-1, Temoneira β-lactamase-1, class A; CTX-M-15, cefotaxime hydrolysing β-lactamase from Munich 15, class A, extended spectrum β-lactamase (ESBL); AmpC E. coli, class C, and OXA-10, oxacillinase-10, class D).” for “ions.”
Figure S6: IC50 curves for VIM-2 inhibition time courses. Residual activities were calculated from the
as §3

NDM-1 = molecular target: T4, NDM-1 (Klebsiella pneumoniae, UniProt C7C422); assay: NDM-1 inhibition, fluorogenic cephalosporin (FC5) hydrolysis; type: biochemical; settings: enethiols 6 assayed as sodium salts; 10 min incubation; read-out: IC50 NDM-1
T4 construct: made in house
Experimental: as §1, §2
Figure S4: IC50 curves for NDM-1 inhibition time courses. Residual activities were calculated from the
as §3

Chain of SPM-1 (Q8G9Q0 entry or part of it): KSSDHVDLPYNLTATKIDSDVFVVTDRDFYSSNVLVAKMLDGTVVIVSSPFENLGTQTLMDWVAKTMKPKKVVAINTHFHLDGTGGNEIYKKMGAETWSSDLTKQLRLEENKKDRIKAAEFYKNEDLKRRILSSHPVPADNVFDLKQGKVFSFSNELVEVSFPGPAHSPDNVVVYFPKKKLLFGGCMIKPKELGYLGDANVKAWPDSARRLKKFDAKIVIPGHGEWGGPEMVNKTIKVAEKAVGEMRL
T1 sequence (P52699 19-246, looked up, species assumed): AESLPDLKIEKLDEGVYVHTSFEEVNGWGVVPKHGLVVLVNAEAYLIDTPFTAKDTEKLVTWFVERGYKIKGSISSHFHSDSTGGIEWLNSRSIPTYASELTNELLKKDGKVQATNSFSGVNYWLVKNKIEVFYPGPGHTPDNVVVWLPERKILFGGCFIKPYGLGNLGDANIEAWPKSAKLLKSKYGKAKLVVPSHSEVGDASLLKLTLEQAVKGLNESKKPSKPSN
T2 sequence (P04190 31-257): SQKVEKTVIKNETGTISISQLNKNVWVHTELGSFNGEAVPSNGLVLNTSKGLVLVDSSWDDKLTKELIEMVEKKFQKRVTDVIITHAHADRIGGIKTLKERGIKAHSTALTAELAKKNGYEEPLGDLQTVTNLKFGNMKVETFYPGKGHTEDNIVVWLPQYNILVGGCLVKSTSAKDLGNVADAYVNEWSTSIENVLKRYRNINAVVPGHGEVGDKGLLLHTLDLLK
T4 sequence (C7C422 29-270, looked up, species assumed): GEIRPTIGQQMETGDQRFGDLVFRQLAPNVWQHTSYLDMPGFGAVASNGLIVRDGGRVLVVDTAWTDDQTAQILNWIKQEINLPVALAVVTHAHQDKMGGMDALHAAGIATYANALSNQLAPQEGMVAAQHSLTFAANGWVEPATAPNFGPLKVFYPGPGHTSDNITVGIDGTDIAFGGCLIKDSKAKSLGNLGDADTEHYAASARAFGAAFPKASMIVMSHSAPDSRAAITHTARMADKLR

SMILES | IC50 (SPM-1) | IC50 (IMP-1) | IC50 (BcII) | IC50 (VIM-2) | IC50 (NDM-1)
CN1CCN(NC(=O)CN2C(=O)/C(=C/c3ccc(Br)cc3)SC2=S)CC1 [Compound 5d] | > 50 µM | 28.7 µM | > 50 µM | 44 µM | > 50 µM
Cc1cccc(C)c1/C=C1\SC(=S)N(CC(=O)NN2CCN(C)CC2)C1=O [Compound 5q] | 0.2 µM | 2.7 µM | 27 µM | 29.4 µM | > 50 µM
CN1CCN(NC(=O)CN2C(=O)/C(=C/c3ccccc3F)SC2=S)CC1 [Compound 5f] | 42.7 µM | 22.6 µM | 26.3 µM | 6.2 µM | > 50 µM
O=C(O)/C(S)=C/c1ccc(Br)cc1 [Compound 6d] | 2.3 µM | 3.3 µM | 9.9 µM | 9.4 µM | 
O=C(O)CN1C(=O)/C(=C/c2ccc(Br)cc2)SC1=S [Compound 3d] | 39.7 ± 0.8 µM | > 50 µM | > 50 µM | > 50 µM | > 50 µM
CN1CCN(NC(=O)CN2C(=O)/C(=C/c3csc4ccccc34)SC2=S)CC1 [Compound 5L] | > 50 µM | > 50 µM | 7.2 µM | 41.8 µM | > 50 µM
CN1CCN(NC(=O)CN2C(=O)/C(=C/c3cc(Cl)ccc3Cl)SC2=S)CC1 [Compound 5o] | 2.8 µM | 7 µM | 15.4 µM | > 50 µM | > 50 µM
Cc1ccc(/C=C2\SC(=S)N(CC(=O)O)C2=O)cc1 [Compound 3b] | > 50 µM | > 50 µM | > 50 µM | 32 ± 0.7 µM | > 50 µM
Cc1cccc(C)c1/C=C1\SC(=S)N(CC(=O)O)C1=O [Compound 3q] | > 50 µM | > 50 µM | > 50 µM | 18.7 ± 1 µM | > 50 µM
COc1ccc(/C=C2\SC(=S)N(CC(=O)O)C2=O)cc1 [Compound 3e] | > 50 µM | > 50 µM | > 50 µM | > 50 µM | > 50 µM
CN1CCN(NC(=O)CN2C(=O)/C(=C/c3c(F)cccc3F)SC2=S)CC1 [Compound 5p] | 1.3 µM | 1.3 µM | 3 µM | 41.7 µM | > 50 µM
O=C(O)CN1C(=O)/C(=C/c2csc3ccccc23)SC1=S [Compound 3L] | 13.9 ± 0.5 µM | > 50 µM | 21.7 ± 2.4 µM | 36.9 ± 0.2 µM | > 50 µM
CN1CCN(NC(=O)CN2C(=O)/C(=C/c3cccc(Cl)c3Cl)SC2=S)CC1 [Compound 5n] | 0.3 µM | 0.6 µM | 1.1 µM | 39.5 µM | 32.8 µM
COc1ccc(/C=C2\SC(=S)N(CC(=O)NN3CCN(C)CC3)C2=O)cc1 [Compound 5e] | > 50 µM | 31.5 µM | > 50 µM | > 50 µM | 48.9 µM
O=C(O)/C(S)=C/c1ccc(F)cc1 [Compound 6c] | 4.1 µM | 2.7 µM | 8.2 µM | 9.7 µM | 5 µM
O=C(O)/C(S)=C/c1csc2ccccc12 [Compound 6L] | 0.4 µM | 0.7 µM | 3.1 µM | 0.5 µM | 11.1 µM
O=C(O)CN1C(=O)/C(=C/c2c(F)cccc2Cl)SC1=S [Compound 3j] | 1.2 ± 0.3 µM | 43.7 ± 0.5 µM | > 50 µM | 9.8 ± 2.8 µM | > 50 µM
CN1CCN(NC(=O)CN2C(=O)/C(=C/c3ccccc3I)SC2=S)CC1 [Compound 5i] | 8.8 µM | 37.1 µM | > 50 µM | 37.6 µM | > 50 µM
O=C(O)/C(S)=C/c1ccccc1Cl [Compound 6g] | 0.1 µM | 0.4 µM | 0.9 µM | 0.4 µM | 5.1 µM
CN1CCN(NC(=O)CN2C(=O)/C(=C/c3ccccc3Br)SC2=S)CC1 [Compound 5h] | 8.1 µM | 8.3 µM | 14.6 µM | 11.4 µM | > 50 µM

SMILES | IC50 (SPM-1) | IC50 (IMP-1) | IC50 (BcII) | IC50 (VIM-2) | IC50 (NDM-1)
O=C(O)/C(S)=C/c1c(F)ccc(F)c1F [Compound 6k] | 0.1 µM | 0.4 µM | 0.3 µM | 0.3 µM | 3.3 µM
CN1CCN(NC(=O)CN2C(=O)/C(=C/c3ccccc3Cl)SC2=S)CC1 [Compound 5g] | 9.8 µM | 7.6 µM | > 50 µM | 2 µM | > 50 µM
Cc1ccc(/C=C(\S)C(=O)O)cc1 [Compound 6b] | 0.3 µM | 0.2 µM | 0.7 µM | 0.4 µM | 3.7 µM
O=C(O)CN1C(=O)/C(=C/c2c(Cl)ccc(Cl)c2Cl)SC1=S [ML302A] | 4.8 ± 0.3 µM | 9.6 ± 0.4 µM | 21.3 ± 0.5 µM | 3.6 ± 0.7 µM | > 50 µM
O=C(O)CN1C(=O)/C(=C/c2cccc(Cl)c2Cl)SC1=S [Compound 3n] | 1 ± 0.1 µM | 46.2 ± 1.4 µM | 22.1 ± 1 µM | 7.6 ± 0.3 µM | > 50 µM
O=C(O)CN1C(=O)/C(=C/c2ccccc2Cl)SC1=S [Compound 3g] | 25.1 ± 1.5 µM | 43.2 ± 2.1 µM | > 50 µM | 6.7 ± 0.2 µM | > 50 µM
O=C(O)CN1C(=O)/C(=C/c2c(F)cccc2F)SC1=S [Compound 3p] | 32.1 ± 2.3 µM | > 50 µM | > 50 µM | 6.8 ± 0.2 µM | > 50 µM
O=C(O)/C(S)=C/c1ccccc1Cc1ccc2ccccc2c1 [Compound 6s] | 0.06 ± 0.003 µM | 0.08 ± 0.002 µM | 0.2 ± 0.03 µM | 0.1 ± 0.003 µM | 1.1 ± 1.7 µM
CN1CCN(NC(=O)CN2C(=O)/C(=C/c3c(F)cccc3Cl)SC2=S)CC1 [Compound 5j] | 0.1 µM | 0.3 µM | 2 µM | 0.8 µM | > 50 µM
O=C(O)CN1C(=O)/C(=C/c2c(F)ccc(F)c2F)SC1=S [Compound 3k] | 8.8 ± 0.3 µM | 46.5 ± 0.7 µM | 27 ± 2.2 µM | 47.6 ± 0.4 µM | > 50 µM
COc1ccc(/C=C(\S)C(=O)O)cc1 [Compound 6e] | 0.6 µM | 0.8 µM | 2.4 µM | 0.4 µM | 8.2 µM
O=C(O)CN1C(=O)/C(=C/c2c(Cl)cccc2Cl)SC1=S [Compound 3m] | 3.5 ± 0.4 µM | 18.9 ± 0.8 µM | 41.8 ± 2.3 µM | 0.6 ± 0.1 µM | > 50 µM
O=C(O)/C(S)=C/c1ccccc1I [Compound 6i] | 1.4 µM | 0.7 µM |  | 3.5 µM | 5 µM
CN1CCN(NC(=O)CN2C(=O)/C(=C/c3ccc(F)cc3)SC2=S)CC1 [Compound 5c] | > 50 µM | > 50 µM | > 50 µM | > 50 µM | > 50 µM
O=C(O)CN1C(=O)/C(=C/c2ccc(F)cc2)SC1=S [Compound 3c] | > 50 µM | > 50 µM | > 50 µM | 34.5 ± 0.6 µM | > 50 µM
O=C(O)CN1C(=O)/C(=C/c2ccccc2F)SC1=S [Compound 3f] | > 50 µM | > 50 µM | > 50 µM | 17.6 ± 0.7 µM | > 50 µM
O=C(O)CN1C(=O)/C(=C/c2cc(Cl)ccc2Cl)SC1=S [Compound 3o] | 16.6 ± 1 µM | > 50 µM | > 50 µM | > 50 µM | > 50 µM
O=C(O)CN1C(=O)/C(=C/c2ccccc2I)SC1=S [Compound 3i] | 2 ± 0.5 µM | 22.4 ± 0.4 µM | 31.7 ± 1 µM | 5.9 ± 0.1 µM | > 50 µM
O=C(O)/C(S)=C/c1ccccc1F [Compound 6f] | 0.3 µM | 1.4 µM | 4 µM | 3.3 µM | 12.9 µM
